Measured values reported in ChEMBL document CHEMBL1129561 (J Med Chem, 1996).

Experiments:
[1] = biological target: T1, Progesterone receptor (Homo sapiens, UniProt P06401)
T1 sequence (P06401 whole entry): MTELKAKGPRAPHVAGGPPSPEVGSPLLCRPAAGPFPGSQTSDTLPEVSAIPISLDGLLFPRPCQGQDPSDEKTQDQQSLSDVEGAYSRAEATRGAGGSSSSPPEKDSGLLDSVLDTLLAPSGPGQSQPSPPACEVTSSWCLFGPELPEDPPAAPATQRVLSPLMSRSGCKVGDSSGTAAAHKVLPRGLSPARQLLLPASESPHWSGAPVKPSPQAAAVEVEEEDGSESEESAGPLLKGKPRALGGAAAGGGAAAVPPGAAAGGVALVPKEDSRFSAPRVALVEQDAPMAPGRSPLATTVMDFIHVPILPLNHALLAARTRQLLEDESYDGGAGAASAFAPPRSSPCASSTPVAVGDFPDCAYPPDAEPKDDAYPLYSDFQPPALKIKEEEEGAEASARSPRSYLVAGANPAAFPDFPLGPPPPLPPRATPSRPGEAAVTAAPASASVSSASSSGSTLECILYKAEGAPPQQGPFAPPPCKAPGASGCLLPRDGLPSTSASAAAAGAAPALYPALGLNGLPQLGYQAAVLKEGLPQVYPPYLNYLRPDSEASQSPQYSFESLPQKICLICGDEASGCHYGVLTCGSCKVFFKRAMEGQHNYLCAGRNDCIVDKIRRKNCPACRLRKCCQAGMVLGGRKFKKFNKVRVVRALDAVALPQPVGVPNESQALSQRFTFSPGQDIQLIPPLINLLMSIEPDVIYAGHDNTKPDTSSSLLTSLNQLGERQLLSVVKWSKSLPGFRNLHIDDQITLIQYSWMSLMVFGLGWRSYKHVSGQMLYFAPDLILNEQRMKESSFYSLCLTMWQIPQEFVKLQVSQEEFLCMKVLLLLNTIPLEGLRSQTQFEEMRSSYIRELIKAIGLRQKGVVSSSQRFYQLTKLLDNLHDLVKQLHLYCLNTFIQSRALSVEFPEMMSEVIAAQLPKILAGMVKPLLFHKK

[2] = biological target: T2, Androgen receptor (Homo sapiens, UniProt P10275)
T2 sequence (P10275 whole entry): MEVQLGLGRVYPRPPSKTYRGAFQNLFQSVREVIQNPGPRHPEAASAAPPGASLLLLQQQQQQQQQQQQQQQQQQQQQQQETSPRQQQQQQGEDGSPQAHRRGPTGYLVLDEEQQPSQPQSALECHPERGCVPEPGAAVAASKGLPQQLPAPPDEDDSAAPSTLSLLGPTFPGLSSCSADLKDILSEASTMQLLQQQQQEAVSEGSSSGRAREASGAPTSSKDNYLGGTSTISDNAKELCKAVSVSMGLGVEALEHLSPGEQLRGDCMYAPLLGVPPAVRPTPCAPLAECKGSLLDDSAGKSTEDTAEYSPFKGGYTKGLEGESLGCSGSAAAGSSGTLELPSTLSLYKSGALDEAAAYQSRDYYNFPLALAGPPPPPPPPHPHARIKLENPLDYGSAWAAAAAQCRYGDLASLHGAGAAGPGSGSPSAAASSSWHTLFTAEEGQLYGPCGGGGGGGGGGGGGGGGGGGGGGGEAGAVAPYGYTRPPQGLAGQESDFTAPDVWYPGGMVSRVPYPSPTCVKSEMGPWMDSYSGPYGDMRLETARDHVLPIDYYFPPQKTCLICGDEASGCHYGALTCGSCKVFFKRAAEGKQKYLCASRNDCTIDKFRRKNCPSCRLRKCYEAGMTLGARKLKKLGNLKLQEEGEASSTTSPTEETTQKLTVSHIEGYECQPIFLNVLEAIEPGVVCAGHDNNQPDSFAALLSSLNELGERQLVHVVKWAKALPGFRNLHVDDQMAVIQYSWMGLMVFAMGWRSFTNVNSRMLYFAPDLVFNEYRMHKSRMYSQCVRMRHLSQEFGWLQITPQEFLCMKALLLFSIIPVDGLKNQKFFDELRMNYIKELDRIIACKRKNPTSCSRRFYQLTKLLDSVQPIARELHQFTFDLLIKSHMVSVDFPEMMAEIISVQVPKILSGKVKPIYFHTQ
Description: Inhibitory activity against human Androgen receptor

[3] = biological target: T2, Androgen receptor; remark: listed apart in the source
Description: Binding affinity determined against human Androgen receptor

[4] = biological target: T3, Glucocorticoid receptor (Homo sapiens, UniProt P04150)
T3 sequence (P04150 whole entry): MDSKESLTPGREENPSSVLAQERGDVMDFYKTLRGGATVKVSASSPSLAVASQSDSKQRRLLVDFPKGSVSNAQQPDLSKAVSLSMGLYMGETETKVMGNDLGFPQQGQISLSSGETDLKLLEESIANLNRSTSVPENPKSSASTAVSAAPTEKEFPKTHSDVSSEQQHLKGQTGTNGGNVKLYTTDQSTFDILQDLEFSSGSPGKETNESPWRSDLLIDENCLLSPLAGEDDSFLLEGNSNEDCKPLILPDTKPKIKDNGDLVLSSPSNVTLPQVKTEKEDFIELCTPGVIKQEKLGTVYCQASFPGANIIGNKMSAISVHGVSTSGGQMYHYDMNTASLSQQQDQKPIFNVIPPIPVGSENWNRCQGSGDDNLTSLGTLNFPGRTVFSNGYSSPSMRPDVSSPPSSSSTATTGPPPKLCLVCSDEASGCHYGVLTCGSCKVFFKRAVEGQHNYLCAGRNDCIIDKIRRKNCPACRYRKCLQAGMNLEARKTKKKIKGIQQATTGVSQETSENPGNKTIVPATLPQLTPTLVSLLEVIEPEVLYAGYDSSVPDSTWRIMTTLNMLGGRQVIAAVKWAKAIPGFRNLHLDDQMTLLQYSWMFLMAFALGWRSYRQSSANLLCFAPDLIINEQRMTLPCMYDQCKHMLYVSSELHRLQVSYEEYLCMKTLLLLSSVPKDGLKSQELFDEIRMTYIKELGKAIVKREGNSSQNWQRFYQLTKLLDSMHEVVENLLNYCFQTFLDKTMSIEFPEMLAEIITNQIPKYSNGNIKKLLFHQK
Description: Inhibitory activity against human glucocorticoid receptor (hGR)

[5] = biological target: T1, Progesterone receptor; remark: listed apart in the source
[6] = biological target: T1, Progesterone receptor; remark: listed apart in the source
[7] = biological target: T4, Estrogen receptor (Homo sapiens, UniProt Q92731+P03372)
Description: Inhibitory activity against human estrogen receptor

[8] = biological target: T4, Estrogen receptor; remark: listed apart in the source
Description: Binding affinity for human estrogen receptor

C=C1C=C(C)CC(C)(C)C1Cc1ccc([N+](=O)[O-])cc1 (stereo not drawn)
IC50 [1]: 0.186 µM | IC50 [2]: 0.25 µM | Ki [3]: 6.3 µM | IC50 [4]: > 10 µM | IC50 [5]: 1.05 µM | Ki [6]: 0.0535 µM | IC50 [7]: > 10 µM | Ki [8]: > 10 µM
